Read-outs that look alike come from different tables or passages of the source.
Tests used:
Type in all cases: cell-based
[1] = system: SW480 (colon adenocarcinoma cell line); test: In vitro MTS cell viability assay (NCI-60 methodology), SW480; conditions: Homo sapiens, SW480 cells, read-out: SW480 LC50
Description: (§1) The cell viability measurement is based on the NCI-60 screening methodology (Nat. Rev. Cancer 6, 813-823, 2006). Briefly, cells are inoculated into 96-well plates at the optimal plating density. After 24 h, one of the two plates for Hep3B cell line is processed to determine a time zero cell viability (Tz) by MTS assay (Promega). Compounds are added over a 2-fold serial dilution to provide a total five drug concentrations plus DMSO control. Plates are incubated for a further 2 days, then measured cell viability by MTS assay [control growth (C) and test growth in the presence of drug at the five concentration levels (Ti)]. The LC50 is calculated from [(Ti−Tz)/Tz]×100=−50, which is the drug concentration resulting in a 50% reduction at the end of the drug treatment as compared to that at the beginning.
(§2) The compounds prepared in Tables 1-10 were tested in three in vitro assays, and the results are shown in Tables 1-10 for Hep3B and Table 11 for SW480 and NCI-H460 shown below. Herein, Hep3B refers to hepatocellular carcinoma cell line, SW480 refers to colon adenocarcinoma cell line, and NCI-H460 refers to human lung cancer cell line.
(§3) Shown in Tables 11 are in vitro activities of exemplary compounds of formula (I).

[2] = system: NCI-H460 (human lung cancer cell line); test: In vitro MTS cell viability assay (NCI-60 methodology), NCI-H460; conditions: NCI-H460 cells, read-out: NCI-H460 LC50
Description: as §1, §2, §3

[3] = system: Hep3B cells (hepatocellular carcinoma cell line); test: In vitro MTS cell viability assay (NCI-60 methodology), Hep3B; conditions: Homo sapiens, 48 h, 2 days drug incubation, 50% reduction vs time zero, read-out: Hep3B LC50
In short: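 Hep3B cells given five 2-fold dilutions of compound for 2 days, with viability by MTS measured at time zero and at end. LC50 is the concentration giving a 50% fall in viable cells relative to the start of treatment, per NCI-60 formula.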

| Compound | CC50 [1] | CC50 [2] | LC50 ([3]; Table 6, MTS) | LC50 ([3]; Table 5, MTS) | LC50 ([3]; Table 10, MTS) | LC50 ([3]; Table 9, MTS) | LC50 ([3]; Table 4, MTS) | LC50 ([3]; Table 1, MTS) |
| --- | --- | --- | --- | --- | --- | --- | --- | --- |
| O=C(Nc1nc(-c2cccnc2)nc2c1cnn2-c1ccc(F)cc1)c1ccc([N+](=O)[O-])s1 [Compound 6-111, N-(1-(4-fluorophenyl)-6-(pyridin-3-yl)-1H-pyrazolo[3,4-d]pyrimidin-4-yl)-5-nitrothiophene-2-carboxamide] | > 4 µM | 1.87 µM | 0.09 µM | – | – | – | – | – |
| N#Cc1ccc(-c2nc(NC(=O)c3ccc([N+](=O)[O-])s3)c3cnn(-c4ccccc4)c3n2)cc1 [Compound 5-32, N-(6-(4-cyanophenyl)-1-phenyl-1H-pyrazolo[3,4-d]pyrimidin-4-yl)-5-nitrothiophene-2-carboxamide] | 2.77 µM | 1.16 µM | – | 0.11 µM | – | – | – | – |
| O=C(Nc1nc(-c2ccc(F)nc2)nc2c1cnn2C1CCC(F)(F)CC1)c1ccc([N+](=O)[O-])s1 [Compound 10-55, N-(1-(4,4-difluorocyclohexyl)-6-(6-fluoropyridin-3-yl)-1H-pyrazolo[3,4-d]pyrimidin-4-yl)-5-nitrothiophene-2-carboxamide] | 1.06 µM | 0.94 µM | – | – | 0.71 µM | – | – | – |
| O=C(Nc1nc(N2CCC[C@H]2COc2ccccc2)nc2c1cnn2-c1ccc(F)cc1)c1ccc([N+](=O)[O-])s1 [Compound 6-106, (S)—N-(1-(4-fluorophenyl)-6-(2-(phenoxymethyl)pyrrolidin-1-yl)-1H-pyrazolo[3,4-d]pyrimidin-4-yl)-5-nitrothiophene-2-carboxamide] | 0.5 µM | 1.65 µM | 0.43 µM | – | – | – | – | – |
| O=C(Nc1nc(-c2ccc(Cl)cc2F)nc2c1cnn2-c1ccccc1)c1ccc([N+](=O)[O-])s1 [Compound 5-47, N-(6-(4-chloro-2-fluorophenyl)-1-phenyl-1H-pyrazolo[3,4-d]pyrimidin-4-yl)-5-nitrothiophene-2-carboxamide] | 0.61 µM | 0.29 µM | – | 0.13 µM | – | – | – | – |
| O=C(Nc1nc(-c2ccc(Cl)cc2)nc2c1cnn2-c1ccc(F)cc1)c1ccc([N+](=O)[O-])s1 [Compound 6-118, N-(6-(chlorophenyl)-1-(4-fluorophenyl)-1H-pyrazolo[3,4-d]pyrimidin-4-yl)-5-nitrothiophene-2-carboxamide] | 2.18 µM | 0.98 µM | 0.25 µM | – | – | – | – | – |
| CCOCCOCCOc1ccc(-c2nc(NC(=O)c3ccc([N+](=O)[O-])s3)c3cnn(-c4ccc(Cl)cc4)c3n2)cn1 [Compound 6-53, N-(1-(4-chlorophenyl)-6-(6-(2-(2-ethoxyethoxy)ethoxy)pyridin-3-yl)-1H-pyrazolo[3,4-d]pyrimidin-4-yl)-5-nitrothiophene-2-carboxamide] | 1.04 µM | 1.09 µM | 0.13 µM | – | – | – | – | – |
| O=C(Nc1nc(-c2ccc(OC(F)(F)F)cc2)nc2c1cnn2-c1ccccc1)c1ccc([N+](=O)[O-])s1 [Compound 5-40, 5-nitro-N-(1-phenyl-6-(4-(trifluoromethoxy)phenyl)-1H-pyrazolo[3,4-d]pyrimidin-4-yl)thiophene-2-carboxamide] | 5.42 µM | 0.93 µM | – | 0.43 µM | – | – | – | – |
| O=C(Nc1nc(-c2ccc(F)c(F)c2)nc2c1cnn2-c1ccc(F)cc1)c1ccc([N+](=O)[O-])s1 [Compound 6-125, N-(6-(3,4-difluorophenyl)-1-(4-fluorophenyl)-1H-pyrazolo[3,4-d]pyrimidin-4-yl)-5-nitrothiophen-2-carboxamide] | 2.28 µM | 0.35 µM | 0.1 µM | – | – | – | – | – |
| O=C(Nc1nc(-c2ccc(Cl)cc2Cl)nc2c1cnn2-c1ccccc1)c1ccc([N+](=O)[O-])s1 [Compound 5-49] | 3.75 µM | 1.22 µM | – | 0.27 µM | – | – | – | – |
| COC(=O)c1ccc(-c2nc(NC(=O)c3ccc([N+](=O)[O-])s3)c3cnn(C4CCN(C(=O)OC(C)(C)C)CC4)c3n2)cc1 [Compound 9-3, tert-butyl 4-(6-(4-(methoxycarbonyl)phenyl)-4-(5-nitrothiophene-2-carboxamido)-1H-pyrazolo[3,4-d]pyrmidin-1-yl)piperidine-1-carboxylate] | 2.72 µM | 1.22 µM | – | – | – | 0.42 µM | – | – |
| CC(C)(C)c1ccc(-n2ncc3c(NC(=O)c4ccc([N+](=O)[O-])s4)nc(N4CCC(F)(F)C4)nc32)cc1 [Compound 6-66, N-(1-(4-(tert-butyl)phenyl)-6-(3,3-difluoropyrrolidin-1-yl)-1H-pyrazolo[3,4,d]pyrimidin-4-yl)-5-nitrothiophene-2-carboxamide] | > 10 µM | 0.41 µM | 0.13 µM | – | – | – | – | – |
| Cc1ccc(-n2ncc3c(NC(=O)c4ccc([N+](=O)[O-])s4)nc(-c4ccc(F)cc4F)nc32)cc1 [Compound 6-11] | 0.67 µM | 0.33 µM | 0.28 µM | – | – | – | – | – |
| Cc1csc2c(NC(=O)c3ccc([N+](=O)[O-])s3)nc(-c3ccc(C(F)(F)F)cc3)nc12 [Compound 4-2, N-(7-methyl-2-(4-(trifluoromethyl)phenyl)thieno[3,2-d]pyrimidin-4-yl)-5-nitrothiophene-2-carboxamide] | 10.1 µM | 1.65 µM | – | – | – | – | 0.97 µM | – |
| CC(C)n1ncc2c(NC(=O)c3ccc([N+](=O)[O-])s3)nc(-c3ccc(OC(F)(F)F)cc3)nc21 [Compound 1-22, N-(1-isopropyl-6-(4-(trifluoromethoxy)phenyl)-1H-pyrazolo[3,4-d]pyrimidin-4-yl)-5-nitrothiophene-2-carboxamide] | 5.38 µM | 2.18 µM | – | – | – | – | – | 0.73 µM |
| O=C(Nc1nc(-c2ccc(F)nc2)nc2c1cnn2-c1ccccc1)c1ccc([N+](=O)[O-])s1 [Compound 5-28, N-(6-(6-fluoropyridin-3-yl)-1-phenyl-1H-pyrazolo[3,4-d]pyrimidin-4-yl)-5-nitrothiophene-2-carboxamide] | 0.59 µM | 0.28 µM | – | 0.13 µM | – | – | – | – |
| O=C(Nc1nc(-c2ccccc2)nc2c1cnn2-c1ccc(F)cc1)c1ccc([N+](=O)[O-])s1 [Compound 6-110, N-(1-(4-fluorophenyl)-6-phenyl-1H-pyrazolo[3,4-d]pyrimidin-4-yl)-5-nitrothiophene-2-carboxamide] | 1.25 µM | 1.41 µM | 0.23 µM | – | – | – | – | – |
| COc1ccc(-n2ncc3c(NC(=O)c4ccc([N+](=O)[O-])s4)nc(-c4ccc(F)nc4)nc32)cc1 [Compound 6-19, N-(6-(6-fluoropyridin-3-yl)-1-(4-methoxyphenyl)-1H-pyrazolo[3,4-d]pyrimidin-4-yl)-5-nitrothiophene-2-carboxamide] | 0.45 µM | 0.22 µM | 0.06 µM | – | – | – | – | – |
| Cc1ccc(-n2ncc3c(NC(=O)c4ccc([N+](=O)[O-])s4)nc(-c4ccc(F)nc4)nc32)cc1 [Compound 6-5, N-(6-(6-fluoropyridin-3-yl)-1-(p-tolyl)-1H-pyrazolo[3,4-d]pyrimidin-4-yl)-5-nitrothiophene-2-carboxamide] | 0.65 µM | 0.91 µM | 0.11 µM | – | – | – | – | – |
| O=C(Nc1nc(-c2ccc(C(F)(F)F)cc2)nc2c1cnn2-c1ccccc1)c1ccc([N+](=O)[O-])s1 [Compound 5-39, 5-nitro-N-(1-phenyl-6-(4-(trifluoromethyl)phenyl)-1H-pyrazolo[3,4-d]pyrimidin-4-yl)thiophene-2-carboxamide] | > 10 µM | 1.25 µM | – | 0.32 µM | – | – | – | – |
| COC(=O)[C@@H]1CCCN1c1nc(NC(=O)c2ccc([N+](=O)[O-])s2)c2cnn(-c3ccc(C(C)(C)C)cc3)c2n1 [Compound 6-69, methyl(1-(4-(tert-butyl)phenyl)4-(5-nitrothiophene-2-carboxamido)-1H-pyrazolo[3,4-d]pyrimidin-6-yl)-L-prolinate] | 0.89 µM | 2.76 µM | 0.44 µM | – | – | – | – | – |
| Cc1ccc(-n2ncc3c(NC(=O)c4ccc([N+](=O)[O-])s4)nc(-c4ccc(F)cc4)nc32)cc1 [Compound 6-4, N-(6-(4-fluorophenyl)-1-(p-tolyl)-1H-pyrazolo[3,4-d]pyrimidin-4-yl)-5-nitrothiophene-2-carboxamide] | 1.51 µM | 0.68 µM | 0.28 µM | – | – | – | – | – |
| CCOCCOCCOc1ccc(-c2nc(NC(=O)c3ccc([N+](=O)[O-])s3)c3cnn(-c4ccc(OC)cc4)c3n2)cn1 [Compound 6-28, N-(6-(6-(2-(2-ethoxyethoxy)ethoxy)pyridin-3-yl)-1-(4-methoxyphenyl)-1H-pyrazolo[3,4-d]pyrimidin-4-yl)-5-nitrothiophene-2-carboxamide] | 3.44 µM | 0.68 µM | 0.19 µM | – | – | – | – | – |
